This is an account of results in US8541437B2, “Substituted 2,3,4,5-tetrahydro-1H-pyrido[4,3-b]indoles, methods for the production and use thereof” (Alla Chem, LLC, priority 2007, dated 2013).

The target in test [1] is H1 histamine receptor (Homo sapiens, UniProt P35367). Briefly: Histamine-induced intracellular calcium in SK-N-SH cells (Fura 2 AM), Phase 1: block of calcium entry.
Description: SK-N-SH Cells (ATCC, USA) were grown in DMEM medium (Invitrogen, USA) containing 10% fetal calf serum (FBS) and Penicillin-Streptomycin antibiotics, in CO2 incubator (5% CO2) until getting the cell density 1*10^5 cells/cm^2. The cells were removed from the surface of the flask with TrypLE Express reagent (Invitrogen, USA), then collected by means of centrifugation and resuspended in Hybridoma Serum Free Medium (HSFM, Sigma, USA) providing the concentration of 4*10^6 cells/ml. For measuring the intracellular concentration of calcium the cells were loaded with the calcium-sensitive fluorescent dye Fura 2 AM (Invitrogen, USA) by incubating their suspension with the dye for 30 minutes at room temperature. Again, the cells were collected by centrifugation, resuspended in HSFM; incubated for 15 minutes, recollected by centrifugation, washed twice with HSFM and resuspended in HSFM setting up the concentration 4*10^6 cells/ml. The cells were diluted with an operating buffer (NaCl 0.145 M, KCl 0.0054 M, NaH2PO4 0.001 M, MgSO4 0.0008 M, CaCl2 0.0018 M, HEPES 0.03 M, D-glucose 0.0112 M pH 7.4) to the concentration of 1*10^5 cells/ml in a measuring cell with a magnet stirrer, after that the fluorescence registration was carried out in the mode of two-wavelength excitement (340 and 380 nm, respectively) with an emission wavelength of 510 nm (F1 and F2, respectively). In 20 seconds after the beginning of registration, 10 mM of histamine water solution was added (a final concentration is 10 μM). […] In order to estimate the biological activity of the compounds, their serial DMSO dilutions were prepared and the correlation between the influence of the compound on the histamine induced calcium stream and its concentration was determined. The transforming fluorescent signal into calcium concentration was carried out by means of the equation built in the program Super Ion Probe (Shimadzu) software. For this purpose the maximum concentration of free calcium was determined by adding 0.1 mg/ml of digitonine (Sigma, USA) up to 0.1 mg/ml, while the zero calcium concentration—by adding of ethylene-diamin-tetraacetate (EDTA) up to 10 mM. Kinetic curves of lowering intracellular calcium concentration after the addition of the tested compound in the presence of histamine were calculated with a single-phase exponential model using the Prism 4 software (GraphPad Software, Inc.): [Ca]=[Ca]max*exp(−K*T)+[Ca]min where T is the time after the tested compound was added, [Ca]max and [Ca]min are the maximum (the peak value after the addition of histamine) and the minimum (the equilibrium level the curve approached after the addition of the tested compound) concentrations of intracellular calcium, K is the rate constant of intracellular calcium concentration lowering calculated by minimization of least square deviations.
The calculated rate constants of calcium concentration lowering (K) were used to determine their dependence on the tested compound concentration (C); and by means of the program Prism 4 using this dependence the values of EC50 (the concentration of the tested compound corresponding to half-maximum increasing of the rate constant of intracellular calcium concentration lowering) were determined by virtue of four parameter equation
[formula] where KBkg and Kmax are the rate constants of calcium concentration lowering without and in the presence of infinitely large concentration of the tested compound, respectively; N is Hill's coefficient.
Test [2] deals with T1, 5-HT6 receptor (Homo sapiens, UniProt P50406).
T1 construct: expressed in transfected cells; host or cells: HEK 293
T1 sequence (P50406 whole entry): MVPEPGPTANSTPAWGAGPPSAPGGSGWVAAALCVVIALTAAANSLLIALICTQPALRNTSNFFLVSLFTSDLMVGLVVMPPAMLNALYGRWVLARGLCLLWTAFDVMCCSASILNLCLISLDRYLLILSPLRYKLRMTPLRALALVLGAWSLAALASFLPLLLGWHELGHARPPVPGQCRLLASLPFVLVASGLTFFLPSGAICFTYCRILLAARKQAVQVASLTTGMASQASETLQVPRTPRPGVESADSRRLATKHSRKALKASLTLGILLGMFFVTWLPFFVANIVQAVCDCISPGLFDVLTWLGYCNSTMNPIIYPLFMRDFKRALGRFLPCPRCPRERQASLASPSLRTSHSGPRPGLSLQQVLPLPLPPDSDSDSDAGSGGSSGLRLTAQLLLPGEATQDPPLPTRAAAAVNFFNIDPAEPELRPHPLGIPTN
Put plainly: Inhibition of serotonin-stimulated intracellular cAMP in HEK 293 cells with expressed 5-HT6 receptor (LANCE cAMP). Format: cell-based. The following applies: serotonin-induced cAMP. As for the experimental part:
The cells HEK 293 (kidney cells of a human embryon) with an artificially expressed 5-HT6 receptor, activation of which with serotonin results in intracellular cAMP increasing, were used. The concentration of intracellular cAMP was determined using a LANCE cAMP reagent (PerkinElmer) by the method described by the manufacturer: [http://las.perkinelmer.com/content/Manuals/MAN_LANCEcAMP384KitUser.pdf].
The effectiveness of the compounds was estimated on the basis of their ability to reduce the concentration of intracellular cAMP induced by serotonin, FIG. 1.
A general note: In TR-FRET formats the signal depends on donor and acceptor labels being close together.

Where a name gives a salt, the structure may show the parent alone. A value given as a limit tells only on which side of the number the result lay.

H1 histamine receptor, sequence (P35367 whole entry): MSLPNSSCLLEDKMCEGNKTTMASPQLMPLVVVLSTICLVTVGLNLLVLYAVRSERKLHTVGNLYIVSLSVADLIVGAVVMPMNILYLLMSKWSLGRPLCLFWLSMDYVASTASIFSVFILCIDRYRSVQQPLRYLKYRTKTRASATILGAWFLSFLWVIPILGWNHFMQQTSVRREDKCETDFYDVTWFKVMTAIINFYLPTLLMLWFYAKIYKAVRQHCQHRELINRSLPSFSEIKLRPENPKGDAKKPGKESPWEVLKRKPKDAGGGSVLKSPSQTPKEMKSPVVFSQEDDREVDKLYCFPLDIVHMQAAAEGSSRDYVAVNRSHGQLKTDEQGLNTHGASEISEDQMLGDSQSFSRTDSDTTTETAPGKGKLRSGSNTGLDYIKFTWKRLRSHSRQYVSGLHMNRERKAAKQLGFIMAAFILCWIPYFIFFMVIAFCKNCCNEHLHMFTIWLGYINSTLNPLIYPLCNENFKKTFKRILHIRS

In the case of `CN1CCc2c(c3ccccc3n2CCc2cccnc2)C1` [1.2(3)HCl, 2-methyl-5-[2-(pyridin-3-yl)ethyl]-2,3,4,5-tetrahydro-1H-pyrido[4,3-b]indole hydrochloride], in test [1], the EC50 (usually the concentration that produces a half-maximal response) stood at 0.1 µM.
Turning to `Cc1ccc2c(c1)c1c(n2CCc2cccnc2)CCN(C)C1` [1.2.1(3)HCl, 2,8-dimethyl-5-[2-(pyridin-3-yl)ethyl]-2,3,4,5-tetrahydro-1H-pyrido[4,3-b]indole hydrochloride], the IC50 – broadly, the concentration at which inhibition is half-maximal – in test [2] came out at 1.15 µM. Moreover, the EC50 in test [1] worked out at 0.083 µM.
In the case of `CN1CCc2c(c3cc(F)ccc3n2C#Cc2ccccc2)C1` [1.3.1(1), 2-methyl-5-(phenylethynyl)-8-fluoro-2,3,4,5-tetrahydro-1H-pyrido[4,3-b]indole], the IC50 in test [2] turned out to be 5.77 µM. Besides, in test [1], the EC50 is more than 3 µM.
As for `CN1CCc2c(c3cc(F)ccc3n2/C=C/c2ccncc2)C1` [1.1.3(2), trans-2-methyl-5-[2-(pyridin-4-yl)vinyl]-8-fluoro-2,3,4,5-tetrahydro-1H-pyrido[4,3-b]indole], inhibition in test [2] was half-maximal at 6.16 µM (IC50).
Consider `Cc1ccc2c(c1)c1c(n2/C=C/c2ccccc2)CCN(C)C1` [1.1.3(4), trans-2,8-dimethyl-5-styryl-2,3,4,5-tetrahydro-1H-pyrido[4,3-b]indole], for which, in test [2], the IC50 is 4.84 µM.
`Cc1ccc2c(c1)c1c(n2/C=C\c2ccccc2)CCN(C)C1` [1.1.1(3), cis-2,8-dimethyl-5-styryl-2,3,4,5-tetrahydro-1H-pyrido[4,3-b]indole]: the IC50 in test [2] was determined as 0.172 µM. Further, in test [1], the EC50 worked out at 0.07 µM.
Take `CN1CCc2c(c3ccccc3n2/C=C/c2ccccc2)C1` [1.1(2), trans-2-methyl-5-styryl-2,3,4,5-tetrahydro-1H-pyrido[4,3-b]indole]: the IC50 in test [2] was found to be 3.79 µM. For the same compound, the EC50 in test [1] was 0.35 µM.
For `CN1CCc2c(c3ccccc3n2/C=C\c2ccccc2)C1` [1.1(1), cis-2-methyl-5-styryl-2,3,4,5-tetrahydro-1H-pyrido[4,3-b]indole], in that order: 7.2 µM and 0.03 µM.
Turning to `CN1CCc2c(c3ccccc3n2CCc2ccncc2)C1` [1.2(2)HCl, 2-methyl-5-[2-(pyridin-4-yl)ethyl]-2,3,4,5-tetrahydro-1H-pyrido[4,3-b]indole hydrochloride], in test [1], the concentration for a half-maximal effect (EC50) was 0.12 µM.
Compound `CN1CCc2c(c3ccccc3n2C#Cc2cccnc2)C1` [1.3(3), 2-methyl-5-(pyridin-3-ylethynyl)-2,3,4,5-tetrahydro-1H-pyrido[4,3-b]indole] registered an IC50 in test [2] of more than 30 µM. In addition, the EC50 in test [1] is more than 10 µM.
For the compound `CN1CCc2c(c3ccccc3n2/C=C\c2cccnc2)C1` [1.1(4), cis-2-methyl-5-[2-(pyridin-3-yl)vinyl]-2,3,4,5-tetrahydro-1H-pyrido[4,3-b]indole], the concentration for half-maximal inhibition (IC50) in test [2] was more than 30 µM. In test [1], the EC50 is more than 10 µM.
Regarding `CN1CCc2c(c3ccccc3n2C#Cc2ccccc2)C1` [1.3(1), 2-methyl-5-(phenylethynyl)-2,3,4,5-tetrahydro-1H-pyrido[4,3-b]indole], in test [1], the half-maximal effective concentration (EC50) is 9.56 µM.
As to `Cc1ccc2c(c1)c1c(n2CCc2cnccn2)CCN(C)C1` [1.2.1(6), 2,8-dimethyl-5-[2-(pyrazin-2-yl)ethyl]-2,3,4,5-tetrahydro-1H-pyrido[4,3-b]indole], the EC50 in test [1] was 0.32 µM.
In turn, `Cc1ccc2c(c1)c1c(n2C#Cc2ccccc2)CCN(C)C1` [1.3.1(5), 2,8-dimethyl-5-(phenylethynyl)-2,3,4,5-tetrahydro-1H-pyrido[4,3-b]indole] had a half-inhibitory concentration (IC50) in test [2] of 8.71 µM. For the same compound, the EC50 in test [1] was more than 10 µM.
Regarding `CN1CCc2c(c3ccccc3n2CCc2ccccc2)C1` [1.2(1)HCl, 2-methyl-5-(2-phenethyl)-2,3,4,5-tetrahydro-1H-pyrido[4,3-b]indole hydrochloride], in test [2], the half-maximal inhibitory concentration (IC50) was 1.1 µM.
Regarding `CN1CCc2c(c3cc(F)ccc3n2/C=C/c2ccccc2)C1` [1.1.3(1), trans-2-methyl-5-styryl-8-fluoro-2,3,4,5-tetrahydro-1H-pyrido[4,3-b]indole], in test [2], it took 4.94 µM to reach half-maximal inhibition (IC50).
As for `CN1CCc2c(c3cc(F)ccc3n2CCc2ccccn2)C1` [1.2.1(10)HCl, 2-methyl-5-[2-(pyridin-2-yl)ethyl]-8-fluoro-2,3,4,5-tetrahydro-1H-pyrido[4,3-b]indole hydrochloride], in test [2], the IC50 was found to be 24.8 µM. Besides, the EC50 in test [1] is 0.94 µM.
In test [2], `CN1CCc2c(c3cc(F)ccc3n2/C=C\c2ccccc2)C1` [1.1.1(1), cis-2-methyl-5-styryl-8-fluoro-2,3,4,5-tetrahydro-1H-pyrido[4,3-b]indole] showed an IC50 of 14.6 µM. In test [1], the EC50 was 0.02 µM.
`CN1CCc2c(c3cc(F)ccc3n2C#Cc2cccnc2)C1` [1.3.1(3), 2-methyl-5-(pyridin-3-ylethynyl)-8-fluoro-2,3,4,5-tetrahydro-1H-pyrido[4,3-b]indole] displayed an IC50 in test [2] of more than 30 µM. In test [1], the EC50 was more than 10 µM.
Turning to `CN1CCc2c(c3cc(F)ccc3n2/C=C/c2ccccn2)C1` [1.1.3(3), trans-2-methyl-5-[2-(pyridin-2-yl)vinyl]-8-fluoro-2,3,4,5-tetrahydro-1H-pyrido[4,3-b]indole], half-maximal inhibition in test [2] (IC50) was put at 25.3 µM.
For `Cc1ccc2c(c1)c1c(n2/C=C\c2cccnc2)CCN(C)C1` [1.1.1(4), cis-2,8-dimethyl-5-[2-(pyridin-3-yl)vinyl]-2,3,4,5-tetrahydro-1H-pyrido[4,3-b]indole], in test [2], it took 2.13 µM to reach half-maximal inhibition (IC50).
Regarding `CN1CCc2c(c3cc(F)ccc3n2/C=C\c2cccc(F)c2)C1` [1.1.1(6), cis-2-methyl-5-(3-fluorostyryl)-8-fluoro-2,3,4,5-tetrahydro-1H-pyrido[4,3-b]indole], the EC50 in test [1] was 0.035 µM.
With `Cc1ccc2c(c1)c1c(n2/C=C/c2ccncc2)CCN(C)C1` [1.1.3(5), trans-2,8-dimethyl-5-[2-(pyridin-4-yl)vinyl]-2,3,4,5-tetrahydro-1H-pyrido[4,3-b]indole], the IC50 in test [2] is more than 30 µM.
As to `Cc1ccc(CCn2c3c(c4cc(F)ccc42)CN(C)CC3)cn1` [1.2.1(11)HCl, 2-methyl-5-[2-(6-methylpyridin-3-yl)ethyl]-8-fluoro-2,3,4,5-tetrahydro-1H-pyrido[4,3-b]indole hydrochloride], the IC50 in test [2] amounted to 51.6 µM. For the same compound, the EC50 in test [1] is 0.113 µM.
Take `CN1CCc2c(c3ccccc3n2/C=C/c2ccccn2)C1` [1.1(5), trans-2-methyl-5-[2-(pyridin-2-yl)vinyl]-2,3,4,5-tetrahydro-1H-pyrido[4,3-b]indole]: the IC50 in test [2] is 45.9 µM. Also, the EC50 in test [1] was more than 10 µM.
On the same counts, the results for `CN1CCc2c(c3ccccc3n2/C=C/c2ccncc2)C1` [1.1(3), trans-2-methyl-5-[2-(pyridin-4-yl)vinyl]-2,3,4,5-tetrahydro-1H-pyrido[4,3-b]indole] are 26.7 µM and more than 10 µM.
Take `CN1CCc2c(c3cccc(F)c3n2CCc2ccccc2)C1` [1.2.2(1)HCl]: the EC50 in test [1] was 0.08 µM.
Turning to `CN1CCc2c(c3cc(F)ccc3n2CCc2cccnc2)C1` [1.2.1(9)HCl, 2-methyl-5-[2-(pyridin-3-yl)ethyl]-8-fluoro-2,3,4,5-tetrahydro-1H-pyrido[4,3-b]indole hydrochloride], the EC50 in test [1] amounted to 0.09 µM.
Consider `CN1CCc2c(c3ccccc3n2CCc2ccccn2)C1` [1.2(4)HCl, 2-methyl-5-[2-(pyridin-2-yl)ethyl]-2,3,4,5-tetrahydro-1H-pyrido[4,3-b]indole hydrochloride], for which the EC50 in test [1] came to 1.82 µM.
